Reference: patent US20030215462A1, “Use of UGT inhibitors to increase bioavailability” (priority 2001, published 2003)
Converted amounts (≈) assume the structure as drawn. “And” between values parts separate entries of the source, which are not always exact repeats. Identical values can stand only once.

Key:
[1] = system: T1, UGT enzymes of human liver microsomes; assay: Inhibition of 2ME2 glucuronidation (MG1, MG2) in human liver microsomes; assay type: biochemical; settings: liver 062101, 2ME2 50 μM
T1 construct: other: liver 062101
Description: (§1) Compounds were eluted using a binary solvent gradient system where solvent A was dilute phosphoric acid (pH 3) and solvent B was 80:20 acetonitrile-methanol. […] Detection was at 280 nm.

[2] = system: UGT enzymes of human liver microsomes; assay: as above; assay type: biochemical; settings: liver 062101, 2ME2 50 μM
Description: as §1

[3] = system: UGT enzymes of pooled human jejunum microsomes; assay: Inhibition of 2ME2 glucuronidation (MG1) in pooled human jejunum microsomes; assay type: biochemical; settings: jejunum HJ61, 2ME2 50 μM
Description: as §1

[4] = Solubility in microsomal incubation mixtures
[5] = target: T2, UGT enzymes of human liver microsomes (Homo sapiens, UniProt P16662); assay: Inhibition of zidovudine glucuronidation in human liver microsomes; assay type: biochemical; settings: liver lot 062101
T2 construct: residual metabolism (percentage of control), zidovudine glucuronidation; other: liver lot 062101; residual metabolism (percentage of control), zidovudine glucuronidation; residual metabolism (percentage of control)
T2 sequence (P16662 1-529): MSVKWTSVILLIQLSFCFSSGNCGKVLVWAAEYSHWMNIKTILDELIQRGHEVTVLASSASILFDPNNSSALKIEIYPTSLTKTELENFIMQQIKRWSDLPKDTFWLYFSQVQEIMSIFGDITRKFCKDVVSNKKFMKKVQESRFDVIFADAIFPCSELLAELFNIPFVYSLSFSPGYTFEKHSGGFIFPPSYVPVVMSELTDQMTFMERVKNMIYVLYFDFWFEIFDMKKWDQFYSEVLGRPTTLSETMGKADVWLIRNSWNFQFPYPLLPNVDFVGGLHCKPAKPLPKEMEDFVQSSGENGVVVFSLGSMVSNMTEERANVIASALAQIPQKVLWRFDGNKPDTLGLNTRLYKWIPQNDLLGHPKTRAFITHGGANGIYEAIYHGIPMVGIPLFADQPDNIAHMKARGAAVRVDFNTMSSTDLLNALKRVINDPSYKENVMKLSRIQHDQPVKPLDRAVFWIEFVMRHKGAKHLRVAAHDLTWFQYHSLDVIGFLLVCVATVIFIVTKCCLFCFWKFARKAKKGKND
Experimental: Compounds were eluted using a binary solvent gradient system where solvent A was dilute phosphoric acid (pH 3) and solvent B was acetonitrile.
Standardized incubations utilized 500 μM zidovudine substrate, 1 mg/ml microsomal protein, 5 mM UDPGA and a 30 min incubation time. […] Int.

in vivo = settings: female, Sprague-Dawley, rat, po, 10 mg/kg
Experimental: Female Sprague-Dawley rats (220-250 g body weight) with cannulae inserted into the jugular vein were purchased from Hilltop Animals Inc. (Scottsdale, Pa.). Catheter patency was maintained using a heparin lock. Animals were individually housed at 18-26° C. and allowed free movement and access to water. Rats were fed standard Laboratory Rodent Diet during a minimum 1-day acclimatization period but were fasted from at least 8 h prior to dose administration and were not administered food throughout the study.
Immediately prior to treatment, the ethanol was removed by nitrogen evaporation and rats were administered 1 ml/kg of each emulsion using a standard gavage needle. […] Blood volume was replaced with saline after each sample. Whole blood samples were collected in Microtainer® tubes (Becton-Dickinson, Franklin Lakes, N.J.) containing sodium EDTA anti-coagulant. Erythrocytes were precipitated by centrifugation (2800 rpm×10-20 min) and plasma samples were stored in the freezer prior to extraction and analysis.
Plasma samples (100 μl) were extracted by vortex mixing for 60 sec with 200 μl extraction solvent (80% acetonitrile 20% 2 mM NH4OAc pH 9) and 20 μl internal standard solution (1 μM tamoxifen in methanol). […] The lower limit of quantitation was 2 ng/ml.

[6] = system: pooled human jejunum microsomes; assay: Glucuronidation of UGT substrates by pooled human jejunum microsomes; settings: jejunum HJ61, 50 μg/ml; 2ME2 50 μM
human liver microsomes [7] = assay: Glucuronidation of UGT substrates by human liver microsomes; settings: for substrate loss, 2ME2: 2ME2 50 μM
[8] = humans; cited from earlier work
human liver microsomes [9] = settings: cited from earlier work
[10] = system: UGT enzymes of human liver microsomes; assay: Inhibition of raloxifene glucuronidation (G1, G2) in human liver microsomes; assay type: biochemical
Description: Compounds were eluted using a binary solvent gradient system. […] Solvent B was methanol. […] Detection was at 280 nm.

[11] = system: T3, UGT enzymes of human liver microsomes; assay: Inhibition of 7-HFC glucuronidation in human liver microsomes; assay type: biochemical; settings: inhibitor 500 μM; 7-HFC 50 μM, human liver microsomes 100 μg/ml, 15 min
T3 construct: percentage of control metabolism, 7-HFC glucuronidation; percentage of control metabolism, 7-HFC glucuronidation

O=C(c1ccc(OCCN2CCCCC2)cc1)c1c(-c2ccc(O)cc2)sc2cc(O)ccc12 [Raloxifene, raloxifene, reference compound]
residual metabolism (% of control), 2ME2 MG1 ([1]; inhibitor 25 μM): 42 (0) %
residual metabolism (% of control), 2ME2 MG2 ([1]; inhibitor 25 μM): 70 (0) %
residual metabolism (% of control), 2ME2 MG1 ([1]; inhibitor 50 μM): 32 (2) %
residual metabolism (% of control), 2ME2 MG2 ([1]; inhibitor 50 μM): 41 (2) %
residual metabolism (% of control), 2ME2 MG1 ([1]; inhibitor 100 μM): 24 (2) %
residual metabolism (% of control), 2ME2 MG2 ([1]; inhibitor 100 μM): 20 (1) %
residual metabolism (% of control), 2ME2 MG1 ([2]; inhibitor 5 μM): 77 (1) %
residual metabolism (% of control), 2ME2 MG2 ([2]; inhibitor 5 μM): 98 (1) %
residual metabolism (% of control), 2ME2 MG1 ([2]; inhibitor 10 μM): 63 (1) %
residual metabolism (% of control), 2ME2 MG2 ([2]; inhibitor 10 μM): 88 (0) %
residual metabolism (% of control), 2ME2 MG1 ([3]; inhibitor 5 μM): 73 (1) %
residual metabolism (% of control), 2ME2 MG1 ([3]; inhibitor 10 μM): 58 (1) %
residual metabolism (% of control), 2ME2 MG1 ([3]; inhibitor 25 μM): 31 (3) %
residual metabolism (% of control), 2ME2 MG1 ([3]; inhibitor 50 μM): 17 (0) %
residual metabolism (% of control), 2ME2 MG1 ([3]; inhibitor 100 μM): 12 (0) %
solubility in the microsomal incubation ([4]; 500 μM): insoluble
solubility ([4]; microsomal incubation mixtures): 100 µM (≈ 47.4 µg/mL)
residual metabolism (percentage of control), zidovudine glucuronidation ([5]; inhibitor 100 μM): 76 (3) %
residual metabolism (percentage of control), zidovudine glucuronidation ([5]; inhibitor 200 μM): 32 (4) %
AUC(0-t) (in vivo; Raloxifene AUC0-8): 77 ± 61 ng·h/mL
AUC(0-t) (in vivo; Raloxifene AUC0-24): 114 ± 90 ng·h/mL

COc1cc2c(cc1O)CC[C@@H]1[C@@H]2CC[C@]2(C)[C@@H](O)CC[C@@H]12 [2ME2, 2-Methoxyestradiol]
NADPH-dependent metabolism, in words (cytochrome(s) P450): Negligible NADPH-dependent metabolism
substrate loss, 2ME2 [6]: 19,797 ± 631 pmol/min/mg
total loss of 2ME2 from liver microsomal incubation after 60 min (human liver microsomes [7]; 50 μM substrate): 42%
substrate loss, 2ME2 (human liver microsomes [7]; liver lot 032101, 250 μg/ml): 1,573 ± 243 pmol/min/mg
substrate loss, 2ME2 (human liver microsomes [7]; liver lot 062101, 250 μg/ml): 1,035 ± 52 pmol/min/mg

Cc1cn([C@H]2C[C@H](N=[N+]=[N-])[C@@H](CO)O2)c(=O)[nH]c1=O [Zidovudine, zidovudine, reference compound]
absolute oral bioavailability [8]: 65% and 52-75%
Km (human liver microsomes [9]): 3000 to 5000 µM
% of control metabolism (SD, n = 3), raloxifene glucuronide G1 [10]: 93 (3) %
% of control metabolism (SD, n = 3), raloxifene glucuronide G2 [10]: 93 (1) %
% of control metabolism (SD, n = 3), 7-HFC glucuronidation [11]: 99 (1) %
